From patent US20130165368A1, “ANTIMICROBIAL COMPOUNDS” (priority 2010, published 2013) come the findings set out here.

One may read the MIC as the least concentration at which growth counts as inhibited. Lower therefore signals greater potency.

For data set [1], the system named is MRSA NCTC 11939. Description: Synergy testing: disc susceptibility, zone of inhibition on agar containing Laureth derivative. It counts as cell-based, Staphylococcus aureus. Conditions: MRSA NCTC 11939, disc test. As for the experimental part: There now follows data relating to a screen for synergistic interaction between Laureth derivatives [C12E1 to C12E8] and 12 conventional anti-staphylococcal agents.
Ethoxylated Lauryl Alcohol Derivative Preparation As plates containing quarter strength of the MIC of NCTC 11939 are needed, and therefore very small weights of each compound, they were prepared at twenty time strength in 20 mL volumes in plastic universals. Once prepared these solutions were diluted […] by adding 1 mL to 1 mL SDW, resulting a 2 mL volume at ten times strength. This was undertaken in duplicate to create two identical plates.
IST was prepared as previously stated in above. 18 mL agar was added to each universal and then poured into sterile Petri dishes. Control plates were prepared as stated above
A 0.5 McFarland suspension of MRSA NCTC 11939 was prepared using SDW. This was then adjusted to a concentration of 1.5×107 by adding 200 μL to 1.8 mL of SDW. Once diluted, a sterile cotton swab was used to spread the suspension evenly across the entire surface of each agar plate.
Twelve antibiotics discs were added to the plates, 6 per plate in a circle. The plates were then incubated aerobically at 37° C.
The diameter of the zones of clearance were measured and recorded in millimetres. The zones for each compound were compared to the control and to BSAC breakpoints.
A variation of zone size within 2 mm is within acceptable limits of assay reproducibility.

For data set [2], the system named is Propionibacteria. The experiment in a line: MIC with Propionibacteria (Table X). It counts as cell-based. Conditions: 48 h, 48 hours at 37° C., anaerobic. On the procedure:
Further experiments have also been conducted to determine the MIC of a number of other compositions as follows. The experimental procedure followed is the same as that initially described at the beginning of this Examples and Data section of the specification, except where indicated below.
The results were obtained following incubation for 48 hours at 37° C. in anaerobic conditions.

The test system of data set [3] is Respiratory Syncytial Virus (RSV), strain A2. The experiment in a line: Antiviral: cytopathic effect of RSV on A549 cells. Conditions: for Cytopathic effect (cpe): added 1 hour after virus absorption, 96 hours at 33° C., versus untreated lane. It counts as cell-based. As for the experimental part:
(§1) A549 (ATCC CCL-185) cells were plated onto a 96 well and allowed to attach overnight, the wells were washed, and 100 ul of DMEM (Gibco) with 2% FCS was added. To the first column of the data set below, 100 μl of neat virus was added. The virus used was Respiratory Syncytial Virus (RSV), strain A2, a common laboratory strain which retains the ability to infect animal models.
(§2) A two serial dilution was performed (up to column 10), lanes 11+12 were uninfected controls, but relevant lanes contained the appropriate concentration of Laureth 4, laureth 4 was added 1 hour after virus absorption. The alkoxylated alkanol compounds used in the experiment were ‘high purity’, i.e. having a GC purity of at least 97%.
(§3) After 96 hours incubation at 33° C. the medium was removed, cell washed with PBS and stained with methylene blue (Gibco). Cytopathic effect (cpe) was noted visually and wells marked either as positive or negative when view under a light microscope at 4× magnification.
(Cytopathic effects are the visible damage that an infection or toxin causes in cultured cells.)

Data set [4] concerns A549 (ATCC CCL-185) cells. It counts as cell-based. On the procedure: as §1, §2, §3

Each structure is given as a SMILES string. In brackets after ≈: the same amount, converted by molar mass.

Turning to `CCCCCCCCCCCCOCCOCCOCCOCCOCCOCCOCCOCCO` [L8, Octaethylene Glycol Monododecyl Ether], in data set [1], the “susceptibility to various other agents in the presence of Laureth derivative” value is reported as “slight increase in susceptibility”.

With `CCCCCCCCCCCCOCCOCCOCCOCCO` [L4, Tetraethylene Glycol Monododecyl Ether], the MIC in data set [2] (Propionibacterium granulosum 354039G) is 440 µM (≈ 160 µg/mL); in data set [2] (Propionibacterium granulosum 354043J), 440 µM (≈ 160 µg/mL); in data set [2] (Propionibacterium granulosum 354044V), 880 µM (≈ 319 µg/mL); in data set [2] (Propionibacterium species 387327Y), 440 µM (≈ 160 µg/mL); in data set [2] (certain of the Propionibacteria tested), less than 880 µM; in data set [2] (Cutibacterium acnes, Propionibacterium acnes 737) it was 880 µM (≈ 319 µg/mL). Further, the MIC in data set [2] (Cutibacterium avidum, Propionibacterium avidum 340090P) stood at 880 µM (≈ 319 µg/mL); in data set [2] (Cutibacterium avidum, Propionibacterium avidum 340093T) it was 880 µM (≈ 319 µg/mL); in data set [2] (Cutibacterium avidum, Propionibacterium avidum 340097V) it was 880 µM (≈ 319 µg/mL); in data set [2] (Cutibacterium avidum, Propionibacterium avidum 354020J), 880 µM (≈ 319 µg/mL); in data set [2] (Cutibacterium avidum, Propionibacterium avidum 354025L) it was 880 µM (≈ 319 µg/mL). In addition, the “Cytopathic effect (cpe)” value in data set [3] (0.01 mM) and in data set [3] (0.1 mM) was “significantly reduced” throughout. For the same compound, in data set [3] (RSV A2 on A549 cells), the “cytopathic effect of the virus on the cells (overall)” value is “can alleviate the cytopathic effect”. The “state of treated, uninfected cells” value in data set [4] was “healthy and showed little cellular apathy”.
